ChEMBL document CHEMBL1201862, “PubChem BioAssay data set” (2004)
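Step 1: Grow cells in 96-well plates. Step 2: Expose to compound for 48 hours at 5 concentrations. Step 3: Interpolate endpoints linearly; if unreached, use highest concentration. Abbreviation: GI50, concentration required for 50% inhibition of growth.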 Activity calls are given as the source filed them. No stated cut-off is given here; in the data, active = GI50 up to about 1.1 µM and inactive = higher.

Legend:
Assay in all cases: growth of human tumour cells (NCI), 48 h
SR = system: SR
NCI-H23 = system: NCI-H23
IGROV-1 = system: IGROV-1
KM12 = system: KM12
COLO 205 = system: COLO 205
RXF 393 = system: RXF 393
NCI-H226 = system: NCI-H226
HL-60 = system: HL-60
SF-268 = system: SF-268
LXFL 529 = system: LXFL 529
Malme-3M = system: Malme-3M
A498 = system: A498
UO-31 = system: UO-31
NCI-H460 = system: NCI-H460
ACHN = system: ACHN
MDA-MB-231 = system: MDA-MB-231
BT-549 = system: BT-549
MDA-N = system: MDA-N
T47D = system: T47D
MCF7 = system: MCF7

Structure (SMILES) | GI50 (SR) | GI50 (NCI-H23) | GI50 (IGROV-1) | GI50 (KM12) | GI50 (COLO 205) | GI50 (RXF 393) | GI50 (NCI-H226) | GI50 (HL-60) | GI50 (SF-268) | GI50 (LXFL 529) | GI50 (Malme-3M) | GI50 (A498) | GI50 (UO-31) | GI50 (NCI-H460) | GI50 (ACHN) | GI50 (MDA-MB-231) | GI50 (BT-549) | GI50 (MDA-N) | GI50 (T47D) | GI50 (MCF7)
CCN(CC)c1ccc(/N=N/c2ccc(-c3nc4ccc[n+](C)c4o3)cc2)cc1 | 3.69 µM (inactive) | 12.8 µM (inactive) | 12.9 µM (inactive) | 11.1 µM (inactive) | 2.29 µM (inactive) | 10.7 µM (inactive) | 11.5 µM (inactive) | 2.06 µM (inactive) | 12.6 µM (inactive) | 3.81 µM (inactive) | 2.31 µM (inactive) | 15.7 µM (inactive) | 12.7 µM (inactive) | 12.6 µM (inactive) | – | – | – | – | – | –
O=[N+]([O-])c1ccc(Cl)c(C2CC(c3cccc4ccccc34)=Nc3ccccc3S2)c1 (stereo not given) | 3.58 µM (inactive) | 11.4 µM (inactive) | 48.5 µM (inactive) | 20.2 µM (inactive) | 61.2 µM (inactive) | 8.91 µM (inactive) | 27.6 µM (inactive) | 5.21 µM (inactive) | 18.7 µM (inactive) | 18.5 µM (inactive) | > 54.8 µM (inactive) | > 45.2 µM (inactive) | 18.4 µM (inactive) | 26.5 µM (inactive) | 34.1 µM (inactive) | – | – | – | – | –
O=c1c2cc(Cl)ccc2sc2cccc(Cl)c12 | > 100 µM (inactive) | > 100 µM (inactive) | > 100 µM (inactive) | > 100 µM (inactive) | > 100 µM (inactive) | > 100 µM (inactive) | > 100 µM (inactive) | > 100 µM (inactive) | > 100 µM (inactive) | > 100 µM (inactive) | – | > 100 µM (inactive) | > 100 µM (inactive) | > 100 µM (inactive) | > 100 µM (inactive) | – | – | – | – | –
O=C(Nc1c(Cl)cc([N+](=O)[O-])cc1Cl)C(=O)C(C(=O)c1ccncc1)C1OC(=O)c2ccccc21 (stereo not given) | > 100 µM (inactive) | > 100 µM (inactive) | > 100 µM (inactive) | > 100 µM (inactive) | > 100 µM (inactive) | > 100 µM (inactive) | > 100 µM (inactive) | > 100 µM (inactive) | > 100 µM (inactive) | > 100 µM (inactive) | > 100 µM (inactive) | > 100 µM (inactive) | > 100 µM (inactive) | > 100 µM (inactive) | > 100 µM (inactive) | – | – | – | – | –
N#Cc1ccccc1NC(=O)/C(=N\Nc1ccc([N+](=O)[O-])cc1)C1C(=O)NC(=O)NC1=O | – | > 100 µM (inactive) | > 100 µM (inactive) | > 100 µM (inactive) | > 100 µM (inactive) | > 100 µM (inactive) | – | > 100 µM (inactive) | > 100 µM (inactive) | > 100 µM (inactive) | > 100 µM (inactive) | > 100 µM (inactive) | 62.8 µM (inactive) | > 100 µM (inactive) | > 100 µM (inactive) | – | – | – | – | –
O=C(c1ccc(Cl)cc1)N(C(=S)N1CCN(c2ccccc2)CC1)C1CCCCC1 | 67.6 µM (inactive) | > 100 µM (inactive) | > 100 µM (inactive) | > 100 µM (inactive) | > 100 µM (inactive) | > 100 µM (inactive) | 1.03 µM (active) | 94.6 µM (inactive) | > 100 µM (inactive) | > 100 µM (inactive) | > 100 µM (inactive) | – | > 100 µM (inactive) | > 100 µM (inactive) | > 100 µM (inactive) | – | – | – | – | –
COc1ccc(NC(=O)C(=O)c2c(O)c3ccc(O)cc3oc2=O)c([N+](=O)[O-])c1 | – | > 100 µM (inactive) | > 100 µM (inactive) | > 100 µM (inactive) | > 100 µM (inactive) | > 100 µM (inactive) | > 100 µM (inactive) | > 100 µM (inactive) | > 100 µM (inactive) | > 100 µM (inactive) | > 100 µM (inactive) | > 100 µM (inactive) | > 100 µM (inactive) | > 100 µM (inactive) | > 100 µM (inactive) | – | – | – | – | –
O=C(C(=O)n1ncc(Cl)c(Cl)c1=O)n1ncc(Cl)c(Cl)c1=O | – | 19.8 µM (inactive) | 27.4 µM (inactive) | 27.7 µM (inactive) | 13.9 µM (inactive) | > 10 µM (inactive) | > 100 µM (inactive) | 5.82 µM (inactive) | 42.4 µM (inactive) | 14.6 µM (inactive) | 19.7 µM (inactive) | > 100 µM (inactive) | 48.5 µM (inactive) | 45.7 µM (inactive) | 16.9 µM (inactive) | – | – | – | – | –
COC(=O)CC(C(C(=O)OC)C(=O)OC)N1C(=O)OCC1c1ccccc1 (stereo not given) | – | > 100 µM (inactive) | > 100 µM (inactive) | > 100 µM (inactive) | > 100 µM (inactive) | > 100 µM (inactive) | > 100 µM (inactive) | > 100 µM (inactive) | > 100 µM (inactive) | > 100 µM (inactive) | > 100 µM (inactive) | > 100 µM (inactive) | > 100 µM (inactive) | > 100 µM (inactive) | > 100 µM (inactive) | – | – | – | – | –
Cc1[nH]c2ncn(Nc3ccccc3)c(=N)c2c1Cc1ccccc1 | 21.2 µM (inactive) | 31.8 µM (inactive) | 3.85 µM (inactive) | 5.31 µM (inactive) | 0.0998 µM (active) | 30.6 µM (inactive) | > 55 µM (inactive) | 1.73 µM (inactive) | > 100 µM (inactive) | – | > 38.7 µM (inactive) | 33 µM (inactive) | > 100 µM (inactive) | 14.3 µM (inactive) | 4.22 µM (inactive) | 61.7 µM (inactive) | 3.34 µM (inactive) | 0.191 µM (active) | 1.07 µM (active) | 5.45 µM (inactive)
CCn1c(C)nn2c(=O)c3ccccc3nc2c1=O | – | > 100 µM (inactive) | > 100 µM (inactive) | > 100 µM (inactive) | > 100 µM (inactive) | – | – | > 100 µM (inactive) | – | > 100 µM (inactive) | > 100 µM (inactive) | > 100 µM (inactive) | – | > 100 µM (inactive) | > 100 µM (inactive) | – | – | – | – | –
CC1=NN(c2ccccc2)C(=O)C1/N=N/c1ccc(Br)cc1C (stereo not given) | – | 38 µM (inactive) | 67.3 µM (inactive) | > 100 µM (inactive) | > 100 µM (inactive) | 50.5 µM (inactive) | 35.9 µM (inactive) | > 100 µM (inactive) | > 100 µM (inactive) | > 100 µM (inactive) | > 100 µM (inactive) | 57 µM (inactive) | – | > 100 µM (inactive) | 37.3 µM (inactive) | – | – | – | – | –
CCOC(=O)Nc1ccc(S(=O)(=O)OC)cc1.CCOC(=O)Nc1ccc(S(=O)(=O)OC)cc1.NNC(=O)c1ccncc1 | – | > 50 µM (inactive) | > 50 µM (inactive) | > 50 µM (inactive) | > 50 µM (inactive) | – | > 50 µM (inactive) | > 50 µM (inactive) | > 50 µM (inactive) | > 50 µM (inactive) | > 50 µM (inactive) | > 50 µM (inactive) | > 50 µM (inactive) | > 50 µM (inactive) | > 50 µM (inactive) | – | – | – | – | –
CCNc1c(C(=O)N(CC)CC)c(=O)[nH]c2ncccc12 | – | > 100 µM (inactive) | > 100 µM (inactive) | > 100 µM (inactive) | > 100 µM (inactive) | > 100 µM (inactive) | > 100 µM (inactive) | > 100 µM (inactive) | > 100 µM (inactive) | > 100 µM (inactive) | > 100 µM (inactive) | > 100 µM (inactive) | > 100 µM (inactive) | > 100 µM (inactive) | > 100 µM (inactive) | – | – | – | – | –
Cc1cc2c(c(/C=N/c3ccc(N(C)C)cc3)c1)OC1(C=C2)Oc2ccccc2C(=O)N1C (stereo not given) | 54.2 µM (inactive) | 12.5 µM (inactive) | 13.2 µM (inactive) | 15.5 µM (inactive) | 17.5 µM (inactive) | 11.7 µM (inactive) | 23.9 µM (inactive) | 3.54 µM (inactive) | 17.1 µM (inactive) | – | 17.7 µM (inactive) | 19.7 µM (inactive) | 9.2 µM (inactive) | 18.7 µM (inactive) | 12.2 µM (inactive) | 3.53 µM (inactive) | 8.63 µM (inactive) | 12.5 µM (inactive) | 12.5 µM (inactive) | 16.2 µM (inactive)
CC(C)c1ccc(O)c(Cc2cc(C(C)C)cc(Cc3cc(C(C)C)ccc3O)c2O)c1 | 1.88 µM (inactive) | 1.7 µM (inactive) | 2.46 µM (inactive) | 1.97 µM (inactive) | 3.32 µM (inactive) | – | 1.54 µM (inactive) | 2 µM (inactive) | 1.82 µM (inactive) | 1.49 µM (inactive) | 1.5 µM (inactive) | 1.46 µM (inactive) | 1.68 µM (inactive) | 1.83 µM (inactive) | 3.56 µM (inactive) | – | – | – | – | –
c1ccc2c3c([nH]c2c1)C1C2CCCCN2C(c2ccncc2)N1CC3 (stereo not given) | 33.9 µM (inactive) | 34.4 µM (inactive) | – | 35.9 µM (inactive) | 35 µM (inactive) | 29.3 µM (inactive) | – | 21.5 µM (inactive) | > 10 µM (inactive) | 38.1 µM (inactive) | 34 µM (inactive) | – | 11.5 µM (inactive) | 29.6 µM (inactive) | 46.1 µM (inactive) | – | – | – | – | –
O=C1CCc2c(sc3ncnc(Nc4cccc(Br)c4)c23)C1 | 2.33 µM (inactive) | 3.01 µM (inactive) | 1.68 µM (inactive) | 3.6 µM (inactive) | 7.36 µM (inactive) | 2.73 µM (inactive) | 4.06 µM (inactive) | 4.32 µM (inactive) | 3.92 µM (inactive) | – | 1.76 µM (inactive) | 14 µM (inactive) | 1.99 µM (inactive) | 3.99 µM (inactive) | 1.69 µM (inactive) | 3.27 µM (inactive) | 3.77 µM (inactive) | 2.65 µM (inactive) | 2.4 µM (inactive) | 3.93 µM (inactive)
